Molecular target: SMYD2 (Homo sapiens (Human), UniProt Q9NRG4)
Assay: SMYD2 biochemical assay (SMYD2 enzyme assay on peptide substrate, 3H-SAM Flashplate)
Conditions: read-out: SMYD2 Biochem IC50; IC50 values are an average of n = 1 to n = 50

SMYD2, sequence (Q9NRG4 whole entry): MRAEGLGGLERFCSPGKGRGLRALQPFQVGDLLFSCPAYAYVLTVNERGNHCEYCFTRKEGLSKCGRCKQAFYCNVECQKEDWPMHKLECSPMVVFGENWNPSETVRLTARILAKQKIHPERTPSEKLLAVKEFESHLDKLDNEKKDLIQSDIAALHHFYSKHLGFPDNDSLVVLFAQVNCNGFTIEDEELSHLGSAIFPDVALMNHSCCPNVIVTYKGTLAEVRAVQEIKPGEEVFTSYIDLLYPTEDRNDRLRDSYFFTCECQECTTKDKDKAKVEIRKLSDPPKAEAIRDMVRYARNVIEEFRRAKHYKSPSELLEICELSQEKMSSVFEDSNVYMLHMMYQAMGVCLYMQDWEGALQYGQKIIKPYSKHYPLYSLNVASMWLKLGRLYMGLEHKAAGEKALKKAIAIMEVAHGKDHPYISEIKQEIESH

| IC50 | SMILES |
| --- | --- |
| 5620 nM | COc1nn(C)cc1CN1CC(NC(=O)c2cn(C3CC3)nn2)C1 [compound 777, 1-cyclopropyl-N-{1-[(3-methoxy-1-methyl-1H-pyrazol-4-yl)methyl]azetidin-3-yl}-1H-1,2,3-triazole-4-carboxamide] |
| > 50000 nM | O=C(NC1CN(C2(c3ccccc3)COC2)C1)c1cn(C2CC2)nn1 [compound 781, 1-cyclopropyl-N-[1-(3-phenyloxetan-3-yl)azetidin-3-yl]-1H-1,2,3-triazole-4-carboxamide] |
| 2620 nM | O=C(NC1CN(Cc2cn(CCc3ccccc3)cn2)C1)c1cn(C2CC2)nn1 [compound 782, 1-cyclopropyl-N-(1-{[1-(2-phenylethyl)-1H-imidazol-4-yl]methyl}azetidin-3-yl)-1H-1,2,3-triazole-4-carboxamide] |
| 3140 nM | CC(=O)Nc1cccc(C(C)N2CC(NC(=O)c3cn(C4CC4)nn3)C2)c1 (stereo not drawn) [compound 783, 1-cyclopropyl-N-{1-[1-(3-acetamidophenyl)ethyl]azetidin-3-yl}-1H-1,2,3-triazole-4-carboxamide] |
| 21000 nM | Cn1cnc(CN2CC(NC(=O)c3cn(C4CC4)nn3)C2)c1Cl [compound 784, N-{1-[(5-chloro-1-methyl-1H-imidazol-4-yl)methyl]azetidin-3-yl}-1-cyclopropyl-1H-1,2,3-triazole-4-carboxamide] |
| 2590 nM | CC(c1c[nH]cn1)N1CC(NC(=O)c2cn(C3CC3)nn2)C1 (stereo not drawn) [compound 785, 1-cyclopropyl-N-{1-[1-(1H-imidazol-4-yl)ethyl]azetidin-3-yl}-1H-1,2,3-triazole-4-carboxamide] |
| 1700 nM | O=C(NC1CN(C(c2ccc(F)cc2)C2CC2)C1)c1cn(C2CC2)nn1 (stereo not drawn) [compound 786, 1-cyclopropyl-N-{1-[cyclopropyl(4-fluorophenyl)methyl]azetidin-3-yl}-1H-1,2,3-triazole-4-carboxamide] |
| 1430 nM | CC(C)C(c1ccccc1)N1CC(NC(=O)c2cn(C3CC3)nn2)C1 (stereo not drawn) [compound 787, 1-cyclopropyl-N-[1-(2-methyl-1-phenylpropyl)azetidin-3-yl]-1H-1,2,3-triazole-4-carboxamide] |
| 2470 nM | CCC(c1ccccn1)N1CC(NC(=O)c2cn(C3CC3)nn2)C1 (stereo not drawn) [compound 791, 1-cyclopropyl-N-{1-[1-(pyridin-2-yl)propyl]azetidin-3-yl}-1H-1,2,3-triazole-4-carboxamide] |
| 16.4 nM | O=C(NC1CN(Cc2cnn(Cc3ccccc3)c2)C1)c1cn(C2CC2)nn1 [compound 792, N-{1-[(1-benzyl-1H-pyrazol-4-yl)methyl]azetidin-3-yl}-1-cyclopropyl-1H-1,2,3-triazole-4-carboxamide] |
| 9920 nM | COc1ccc2c(c1)CCCC2N1CC(NC(=O)c2cn(C3CC3)nn2)C1 (stereo not drawn) [compound 793, 1-cyclopropyl-N-[1-(6-methoxy-1,2,3,4-tetrahydronaphthalen-1-yl)azetidin-3-yl]-1H-1,2,3-triazole-4-carboxamide] |
| 32300 nM | COc1c(CN)cccc1CN1CC(NC(=O)c2cn(C3CC3)nn2)C1 [compound 794, N-(1-{[3-(aminomethyl)-2-methoxyphenyl]methyl}azetidin-3-yl)-1-cyclopropyl-1H-1,2,3-triazole-4-carboxamide] |
| 7150 nM | O=C(NC1CN(Cc2cn(Cc3ccccc3)cn2)C1)c1cn(C2CC2)nn1 [compound 795, N-{1-[(1-benzyl-1H-imidazol-4-yl)methyl]azetidin-3-yl}-1-cyclopropyl-1H-1,2,3-triazole-4-carboxamide] |
| 422 nM | CC(c1ccccc1OCc1ccccc1)N1CC(NC(=O)c2cn(C3CC3)nn2)C1 (stereo not drawn) [compound 796, N-(1-{1-[2-(benzyloxy)phenyl]ethyl}azetidin-3-yl)-1-cyclopropyl-1H-1,2,3-triazole-4-carboxamide] |
| 1570 nM | CC(c1ccc(-n2ccnc2)cc1)N1CC(NC(=O)c2cn(C3CC3)nn2)C1 (stereo not drawn) [compound 797, 1-cyclopropyl-N-(1-{1-[4-(1H-imidazol-1-yl)phenyl]ethyl}azetidin-3-yl)-1H-1,2,3-triazole-4-carboxamide] |
| 425 nM | CCC(c1ccccc1F)N1CC(NC(=O)c2cn(C3CC3)nn2)C1 (stereo not drawn) [compound 798, 1-cyclopropyl-N-{1-[1-(2-fluorophenyl)propyl]azetidin-3-yl}-1H-1,2,3-triazole-4-carboxamide] |
| 9600 nM | CC(C)N1CC(NC(=O)c2cn(C3CC3)nn2)C1(C)C (stereo not drawn) [compound 799, 1-cyclopropyl-N-[2,2-dimethyl-1-(propan-2-yl)azetidin-3-yl]-1H-1,2,3-triazole-4-carboxamide] |
| 965 nM | COc1cc(OCc2ccccc2)ccc1C(C)N1CC(NC(=O)c2cn(C3CC3)nn2)C1 (stereo not drawn) [compound 800, N-(1-{1-[4-(benzyloxy)-2-methoxyphenyl]ethyl}azetidin-3-yl)-1-cyclopropyl-1H-1,2,3-triazole-4-carboxamide] |
| 1060 nM | COc1ccc(C(C)N2CC(NC(=O)c3cn(C4CC4)nn3)C2)c(OC)c1 (stereo not drawn) [compound 801, 1-cyclopropyl-N-{1-[1-(2,4-dimethoxyphenyl)ethyl]azetidin-3-yl}-1H-1,2,3-triazole-4-carboxamide] |
| 83.4 nM | O=C(NC1CN(Cc2ccc(OCc3ccccc3)cc2)C1)c1cn(C2CC2)nn1 [compound 802, N-(1-{[4-(benzyloxy)phenyl]methyl}azetidin-3-yl)-1-cyclopropyl-1H-1,2,3-triazole-4-carboxamide] |

| IC50 | SMILES |
| --- | --- |
| 69.5 nM | COc1cccc(C(C)N2CC(NC(=O)c3cn(C4CC4)nn3)C2)c1Cl (stereo not drawn) [compound 803, N-{1-[1-(2-chloro-3-methoxyphenyl)ethyl]azetidin-3-yl}-1-cyclopropyl-1H-1,2,3-triazole-4-carboxamide] |
| 970 nM | O=C(NC1CN(Cc2cnn(CCc3ccccc3)c2)C1)c1cn(C2CC2)nn1 [compound 806, 1-cyclopropyl-N-(1-{[1-(2-phenylethyl)-1H-pyrazol-4-yl]methyl}azetidin-3-yl)-1H-1,2,3-triazole-4-carboxamide] |
| 528 nM | O=C(NC1CN(Cc2cnn(CCc3ccccc3)c2)C1)c1cc(C2CC2)cnn1 [compound 807, 5-cyclopropyl-N-(1-{[1-(2-phenylethyl)-1H-pyrazol-4-yl]methyl}azetidin-3-yl)pyridazine-3-carboxamide] |
| 19800 nM | CC(C)N1CCCC(NC(=O)c2cn(C3CC3)nn2)C1 (stereo not drawn) [compound 808, 1-cyclopropyl-N-[1-(propan-2-yl)piperidin-3-yl]-1H-1,2,3-triazole-4-carboxamide] |
| > 50000 nM | O=C(NC1CN(Cc2cncn2Cc2ccccc2)C1)c1cn(C2CC2)nn1 [compound 809, N-{1-[(1-benzyl-1H-imidazol-5-yl)methyl]azetidin-3-yl}-1-cyclopropyl-1H-1,2,3-triazole-4-carboxamide] |
| 1220 nM | Cn1cc(CN2CC(NC(=O)c3cn(C4CC4)nn3)C2)c(Cl)n1 [compound 811, N-{1-[(3-chloro-1-methyl-1H-pyrazol-4-yl)methyl]azetidin-3-yl}-1-cyclopropyl-1H-1,2,3-triazole-4-carboxamide] |
| 15200 nM | O=C(NC1CN(C(CO)c2ccc(F)cc2)C1)c1cn(C2CC2)nn1 (stereo not drawn) [compound 813, 1-cyclopropyl-N-{1-[1-(4-fluorophenyl)-2-hydroxyethyl]azetidin-3-yl}-1H-1,2,3-triazole-4-carboxamide] |
| 598 nM | CCN1CC(NC(=O)c2cc(C3CC3)cnn2)C1 [compound 814, 5-cyclopropyl-N-(1-ethylazetidin-3-yl)pyridazine-3-carboxamide] |
| 18700 nM | CC(C)N1CCCC(NC(=O)c2cc(C3CC3)cnn2)C1 (stereo not drawn) [compound 815, 5-cyclopropyl-N-[1-(propan-2-yl)piperidin-3-yl]pyridazine-3-carboxamide] |
| > 50000 nM | O=C(NC1CN(C(c2ccc(OCc3ccccc3)cc2)C(F)(F)F)C1)c1cn(C2CC2)nn1 (stereo not drawn) [compound 816, N-(1-{1-[4-(benzyloxy)phenyl]-2,2,2-trifluoroethyl}azetidin-3-yl)-1-cyclopropyl-1H-1,2,3-triazole-4-carboxamide] |
| 102 nM | CC(c1ccc(OCc2ccccc2)cc1Cl)N1CC(NC(=O)c2cn(C3CC3)nn2)C1 (stereo not drawn) [compound 817, N-(1-{1-[4-(benzyloxy)-2-chlorophenyl]ethyl}azetidin-3-yl)-1-cyclopropyl-1H-1,2,3-triazole-4-carboxamide] |
| 3000 nM | COCCCOc1ccc(CN2CC(NC(=O)c3cn(C4CC4)nn3)C2)cc1 [compound 818, 1-cyclopropyl-N-(1-{[4-(3-methoxypropoxy)phenyl]methyl}azetidin-3-yl)-1H-1,2,3-triazole-4-carboxamide] |
| > 50000 nM | CNC1CCCC(C(=O)Nc2cc(O)c3c(c2)OCC(=O)N3)C1 (stereo not drawn) [compound 820, N-(5-hydroxy-3-oxo-3,4-dihydro-2H-1,4-benzoxazin-7-yl)-3-(methylamino)cyclohexane-1-carboxamide] |
| 785 nM | COc1ccc(C(C)N2CC(NC(=O)c3cn(C4CC4)nn3)C2)cc1 (stereo not drawn) [compound 821, 1-cyclopropyl-N-{1-[1-(4-methoxyphenyl)ethyl]azetidin-3-yl}-1H-1,2,3-triazole-4-carboxamide] |
| 1970 nM | CC(O)COc1ccc(CN2CC(NC(=O)c3cn(C4CC4)nn3)C2)cc1 (stereo not drawn) [compound 822, 1-cyclopropyl-N-(1-{[4-(2-hydroxypropoxy)phenyl]methyl}azetidin-3-yl)-1H-1,2,3-triazole-4-carboxamide] |
| 3220 nM | O=C(NC1CN(Cc2ccc(OCCCO)cc2)C1)c1cn(C2CC2)nn1 [compound 823, 1-cyclopropyl-N-(1-{[4-(3-hydroxypropoxy)phenyl]methyl}azetidin-3-yl)-1H-1,2,3-triazole-4-carboxamide] |
| 882 nM | O=C(NC1CN(Cc2ccc(O)cc2)C1)c1cn(C2CC2)nn1 [compound 824, 1-cyclopropyl-N-{1-[(4-hydroxyphenyl)methyl]azetidin-3-yl}-1H-1,2,3-triazole-4-carboxamide] |
| 391 nM | CN1CC(NC(=O)c2cc(C3CC3)cnn2)C1 [compound 825, 5-cyclopropyl-N-(1-methylazetidin-3-yl)pyridazine-3-carboxamide] |
| 1840 nM | COc1ccc(CN2CC(NC(=O)c3cn(C4CC4)nn3)C2)cc1 [compound 826, 1-cyclopropyl-N-{1-[(4-methoxyphenyl)methyl]azetidin-3-yl}-1H-1,2,3-triazole-4-carboxamide] |
